pIC50: −log10 of the molar value.
Columns and labels:
FLT3-ITD = molecular target: T1, FLT3-ITD (Homo sapiens, UniProt P36888); test: FLT3-ITD Caliper assay; type: biochemical; settings: Table 4; read-out: FLT3-ITD Calipher assay IC50
T1 sequence (P36888 1-993): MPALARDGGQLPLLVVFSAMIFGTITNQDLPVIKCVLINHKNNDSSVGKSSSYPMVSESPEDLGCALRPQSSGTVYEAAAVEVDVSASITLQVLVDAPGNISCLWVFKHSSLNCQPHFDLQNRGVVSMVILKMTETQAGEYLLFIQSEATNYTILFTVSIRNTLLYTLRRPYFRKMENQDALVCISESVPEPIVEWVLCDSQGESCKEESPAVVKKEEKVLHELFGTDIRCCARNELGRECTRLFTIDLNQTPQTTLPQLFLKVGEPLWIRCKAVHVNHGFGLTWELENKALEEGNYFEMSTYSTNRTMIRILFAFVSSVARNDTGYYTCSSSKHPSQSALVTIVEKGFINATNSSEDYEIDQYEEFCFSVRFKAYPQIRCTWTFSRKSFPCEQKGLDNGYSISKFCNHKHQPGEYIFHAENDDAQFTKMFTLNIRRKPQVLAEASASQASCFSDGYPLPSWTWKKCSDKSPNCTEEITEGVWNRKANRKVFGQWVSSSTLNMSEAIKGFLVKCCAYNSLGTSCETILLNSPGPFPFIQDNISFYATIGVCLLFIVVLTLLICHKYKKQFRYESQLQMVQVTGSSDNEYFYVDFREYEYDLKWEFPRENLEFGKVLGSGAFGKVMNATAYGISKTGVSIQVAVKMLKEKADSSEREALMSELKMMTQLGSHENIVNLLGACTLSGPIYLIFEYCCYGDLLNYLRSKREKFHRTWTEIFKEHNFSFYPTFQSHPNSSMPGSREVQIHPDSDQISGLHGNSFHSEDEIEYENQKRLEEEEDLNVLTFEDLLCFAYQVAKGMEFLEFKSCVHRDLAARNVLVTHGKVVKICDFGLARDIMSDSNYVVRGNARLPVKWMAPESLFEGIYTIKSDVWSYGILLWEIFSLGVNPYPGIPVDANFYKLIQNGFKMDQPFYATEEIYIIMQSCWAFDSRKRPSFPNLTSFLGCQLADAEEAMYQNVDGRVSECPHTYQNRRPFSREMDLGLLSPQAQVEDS
Protocol: (§1) FLT3/FLT3-ITD Caliper Assays
(§2) Assays were performed in a 20 μl-volume in 384-well polypropylene microplates (Perkin Elmer Proxiplate, cat. No. 6059480) at ambient temperature. Optimized 1× assay buffer was 50 mM Hepes pH 7.5, 2 mM DTT, 0.01% Tween, 0.01% BSA, 10 mM MgCl2. For compound screening FLT3 (final concentration, f.c.=0.9 nM) or FLT3-ITD (f.c.=7 nM) was added using a Multidrop Combi (ThermoFisher Scientific, Waltham, MA) and preincubated for 10 min. Reactions were started by adding fluorescein-peptide (sequence 5-FAM-EAIYAAPFAKKK-CONH2) (f.c.=300 μM) and ATP (FLT3 f.c.=97 μM FLT3-ITD f.c.=146 μM) substrates. Reactions proceeded for 60 minutes. The reactions were stopped with LabChip ProfilerPro Separation Buffer containing EDTA (f.c.=20 mM). The plates were read on a Caliper microfluidics reader (PerkinElmer, Waltham, MA).

FLT3 = molecular target: T2, FLT3 (Homo sapiens, UniProt P36888); test: FLT3 Caliper assay; type: biochemical; settings: Table 4; read-out: FLT3 Calipher assay IC50
T2 sequence (P36888 27-993): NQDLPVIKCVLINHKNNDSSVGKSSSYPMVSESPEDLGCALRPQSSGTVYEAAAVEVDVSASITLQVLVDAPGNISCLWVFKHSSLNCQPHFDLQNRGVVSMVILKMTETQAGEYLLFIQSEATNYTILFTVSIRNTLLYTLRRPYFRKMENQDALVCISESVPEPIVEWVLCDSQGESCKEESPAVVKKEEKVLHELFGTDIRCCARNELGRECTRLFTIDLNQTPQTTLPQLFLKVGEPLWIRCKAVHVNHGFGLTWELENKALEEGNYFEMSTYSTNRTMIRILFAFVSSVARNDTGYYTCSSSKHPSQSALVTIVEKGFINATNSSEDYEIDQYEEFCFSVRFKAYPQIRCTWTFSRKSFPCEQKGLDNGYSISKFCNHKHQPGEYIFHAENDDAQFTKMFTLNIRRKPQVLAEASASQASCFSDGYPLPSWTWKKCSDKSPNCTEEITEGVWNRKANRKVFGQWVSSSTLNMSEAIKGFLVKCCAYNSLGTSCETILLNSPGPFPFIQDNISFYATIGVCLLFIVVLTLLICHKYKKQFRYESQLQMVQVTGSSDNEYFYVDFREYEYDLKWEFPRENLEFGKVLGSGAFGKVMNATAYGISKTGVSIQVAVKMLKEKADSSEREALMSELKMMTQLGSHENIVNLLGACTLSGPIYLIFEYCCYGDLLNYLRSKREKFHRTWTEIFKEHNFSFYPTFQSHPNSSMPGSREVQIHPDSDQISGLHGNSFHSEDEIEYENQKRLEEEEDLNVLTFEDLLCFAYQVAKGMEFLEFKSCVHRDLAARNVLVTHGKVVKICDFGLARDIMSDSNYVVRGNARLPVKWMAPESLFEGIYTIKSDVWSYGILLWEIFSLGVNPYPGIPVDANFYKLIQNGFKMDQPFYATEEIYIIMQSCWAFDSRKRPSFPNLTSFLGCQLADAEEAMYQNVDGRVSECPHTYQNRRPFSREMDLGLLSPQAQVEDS
Protocol: as §1, §2

PRMT5-MEP50 = PRMT5-MEP50 (Homo sapiens, UniProt O14744); test: PRMT5 assay (3H-SAM flashplate); settings: Table 4; PRMT5 biochemical assay
Method in brief: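 Radiometric methyl-transfer read-out: 3H-methyl transferred to a 3′-biotinylated, acetylated H4 peptide substrate (100 nM) from 3H-SAM (250 nM), captured on streptavidin scintillation plates. Enzyme complex 2.5 nM, pH 8.0 Tris buffer with DTT and Tween, compound preincubation 5 min, 60 min reaction stopped with excess unlabeled SAM.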

METTL3/METTL14 = METTL3/METTL14 (Homo sapiens, UniProt Q86U44); test: METTL3-14 standard enzyme assay (3H-SAM flashplate); settings: Table 4; METTL3 biochemical assay
Method in brief: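 Radiometric methyltransferase read-out: after quenching with excess unlabelled SAM (15 μM), biotinylated RNA was captured on streptavidin flashplates (2 h, 25° C) and counted. Reactions contained 2.5 nM enzyme (5 min preincubation), 100 nM RNA and 100 nM 3H-SAM, ran 30 min in HEPES pH 7.5 buffer with KCl, MgCl2, DTT.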

Sequence of PRMT5-MEP50 (O14744 whole entry): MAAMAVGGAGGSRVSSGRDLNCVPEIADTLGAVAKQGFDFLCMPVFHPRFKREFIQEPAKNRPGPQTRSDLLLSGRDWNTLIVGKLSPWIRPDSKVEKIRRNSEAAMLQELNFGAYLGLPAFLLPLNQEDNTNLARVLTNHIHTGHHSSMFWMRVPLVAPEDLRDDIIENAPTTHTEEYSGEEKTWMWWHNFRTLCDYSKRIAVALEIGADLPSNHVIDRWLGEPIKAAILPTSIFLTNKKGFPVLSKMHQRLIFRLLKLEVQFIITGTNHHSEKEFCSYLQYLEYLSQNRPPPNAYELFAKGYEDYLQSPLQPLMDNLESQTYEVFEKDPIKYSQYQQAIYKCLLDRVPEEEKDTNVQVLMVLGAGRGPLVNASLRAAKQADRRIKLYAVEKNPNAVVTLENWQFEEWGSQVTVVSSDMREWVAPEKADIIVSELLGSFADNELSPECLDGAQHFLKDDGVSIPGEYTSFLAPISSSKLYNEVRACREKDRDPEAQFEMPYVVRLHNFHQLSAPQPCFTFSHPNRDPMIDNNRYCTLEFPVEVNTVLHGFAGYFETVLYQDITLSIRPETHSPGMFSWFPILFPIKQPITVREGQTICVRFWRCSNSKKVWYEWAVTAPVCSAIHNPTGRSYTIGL
Sequence of PRMT5-MEP50 (Q9BQA1 whole entry partner): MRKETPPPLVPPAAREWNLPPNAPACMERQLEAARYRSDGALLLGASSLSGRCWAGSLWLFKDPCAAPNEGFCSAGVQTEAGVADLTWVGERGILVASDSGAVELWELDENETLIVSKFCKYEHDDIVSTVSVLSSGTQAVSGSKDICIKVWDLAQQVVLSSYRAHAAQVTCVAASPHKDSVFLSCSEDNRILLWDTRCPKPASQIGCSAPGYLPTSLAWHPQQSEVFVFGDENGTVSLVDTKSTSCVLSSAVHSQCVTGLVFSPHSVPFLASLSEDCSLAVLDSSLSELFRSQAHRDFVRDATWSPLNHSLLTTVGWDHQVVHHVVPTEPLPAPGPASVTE
Sequence of METTL3/METTL14 (Q86U44 whole entry, species assumed): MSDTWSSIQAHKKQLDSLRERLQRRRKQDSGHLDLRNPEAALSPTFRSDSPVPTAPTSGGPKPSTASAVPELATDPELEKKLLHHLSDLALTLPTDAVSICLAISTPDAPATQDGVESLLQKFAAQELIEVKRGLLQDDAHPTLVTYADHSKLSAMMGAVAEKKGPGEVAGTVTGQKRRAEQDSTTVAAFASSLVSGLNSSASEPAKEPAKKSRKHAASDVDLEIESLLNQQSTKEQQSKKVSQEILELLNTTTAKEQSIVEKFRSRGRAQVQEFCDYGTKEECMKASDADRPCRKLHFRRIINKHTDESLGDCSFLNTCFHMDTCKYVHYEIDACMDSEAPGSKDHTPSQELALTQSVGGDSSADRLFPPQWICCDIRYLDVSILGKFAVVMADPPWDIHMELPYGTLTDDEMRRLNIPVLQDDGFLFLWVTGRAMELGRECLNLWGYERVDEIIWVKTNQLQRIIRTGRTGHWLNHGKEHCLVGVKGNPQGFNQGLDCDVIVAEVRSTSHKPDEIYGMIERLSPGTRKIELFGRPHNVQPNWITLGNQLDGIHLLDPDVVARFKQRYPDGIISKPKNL
Sequence of METTL3/METTL14 (Q9HCE5 whole entry partner, species assumed): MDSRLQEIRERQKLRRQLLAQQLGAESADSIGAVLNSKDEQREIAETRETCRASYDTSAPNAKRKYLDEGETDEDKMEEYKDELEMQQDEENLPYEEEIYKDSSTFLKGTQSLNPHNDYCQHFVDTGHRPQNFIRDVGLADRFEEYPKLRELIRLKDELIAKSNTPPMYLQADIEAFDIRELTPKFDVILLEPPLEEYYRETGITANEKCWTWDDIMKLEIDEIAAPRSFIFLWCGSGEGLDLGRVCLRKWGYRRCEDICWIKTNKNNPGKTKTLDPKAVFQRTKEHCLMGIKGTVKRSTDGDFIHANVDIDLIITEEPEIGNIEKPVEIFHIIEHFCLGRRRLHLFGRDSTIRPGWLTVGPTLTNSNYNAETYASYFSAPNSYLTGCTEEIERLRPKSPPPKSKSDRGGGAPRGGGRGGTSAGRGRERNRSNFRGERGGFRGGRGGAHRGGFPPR

Row | SMILES | pIC50 (FLT3-ITD) | pIC50 (FLT3) | pIC50 (PRMT5-MEP50) | pIC50 (METTL3/METTL14)
1 | Cn1ccc(-c2cn([C@@H]3O[C@H](C(=O)NC4CCc5nc(N)sc5C4)[C@@H](O)[C@H]3O)c3ncnc(N)c23)n1 (stereo in doubt) [Compound I-161] | ≤ 6.00 | ≤ 6.00 | 6.00 to 7.00 | 6.00 to 7.00
2 | Cn1ccc(-c2cn([C@@H]3O[C@H](C(=O)Nc4ccc5ccc(N6CCC6)nc5c4)[C@@H](O)[C@@H]3F)c3ncnc(N)c23)n1 [Compound I-33, (2S,3R,4S,5R)-5-[4-amino-5-(1-methyl-1H-pyrazol-3-yl)-7H-pyrrolo[2,3-d]pyrimidin-7-yl]-N-[2-(azetidin-1-yl)quinolin-7-yl]-4-fluoro-3-hydroxyoxolane-2-carboxamide] | ≤ 6.00 | ≤ 6.00 | ≤ 6.00 | > 8.00
3 | Nc1ncnc2c1ccn2[C@@H]1O[C@H](C(=O)Nc2ccc3ccc(N4CCC4)nc3c2)[C@@H](O)[C@@H]1F [Compound I-34, (2S,3R,4S,5R)-5-{4-amino-7H-pyrrolo[2,3-d]pyrimidin-7-yl}-N-[2-(azetidin-1-yl)quinolin-7-yl]-4-fluoro-3-hydroxyoxolane-2-carboxamide] | ≤ 6.00 | ≤ 6.00 | ≤ 6.00 | 7.00 to 8.00
4 | CC(=O)N1CCC(NC(=O)[C@H]2O[C@@H](n3cc(-c4ccn(C)n4)c4c(N)ncnc43)[C@H](O)[C@@H]2O)CC1 [Compound I-37] | ≤ 6.00 | ≤ 6.00 | ≤ 6.00 | ≤ 6.00
5 | N#Cc1cn([C@@H]2O[C@H](C(=O)Nc3ccc4ccc(N5CCC5)nc4c3)[C@@H](O)[C@H]2O)c2ncnc(N)c12 [Compound I-52, (2S,3S,4R,5R)-5-{4-amino-5-cyano-7H-pyrrolo[2,3-d]pyrimidin-7-yl}-N-[2-(azetidin-1-yl)quinolin-7-yl]-3,4-dihydroxyoxolane-2-carboxamide] | 6.00 to 7.00 | 6.00 to 7.00 | 6.00 to 7.00 | 7.00 to 8.00
6 | CNc1nc2ccc(NC(=O)[C@H]3O[C@@H](n4cc(-c5ccn(C)n5)c5c(N)ncnc54)[C@H](O)[C@@H]3O)cc2[nH]1 [Compound I-142] | ≤ 6.00 | ≤ 6.00 | > 8.00 | > 8.00
7 | Cn1ccc(-c2cn([C@@H]3O[C@H](C(=O)Nc4cccnc4)[C@@H](O)[C@H]3O)c3ncnc(N)c23)n1 [Compound I-156] | ≤ 6.00 | ≤ 6.00 | 7.00 to 8.00 | 6.00 to 7.00
8 | COc1cccc(NC(=O)[C@H]2O[C@@H](n3cc(-c4ccn(C)n4)c4c(N)ncnc43)[C@H](O)[C@@H]2O)c1 [Compound I-157] | ≤ 6.00 | ≤ 6.00 | 6.00 to 7.00 | ≤ 6.00

Now from value to molecule:

Row | pIC50 (FLT3-ITD) | pIC50 (FLT3) | pIC50 (PRMT5-MEP50) | pIC50 (METTL3/METTL14) | SMILES
9 | ≤ 6.00 | ≤ 6.00 | 6.00 to 7.00 | ≤ 6.00 | CCNc1ccnc(NC(=O)[C@H]2O[C@@H](n3cc(-c4ccn(C)n4)c4c(N)ncnc43)[C@H](O)[C@@H]2O)n1 [Compound I-36]
10 | ≤ 6.00 | ≤ 6.00 | 6.00 to 7.00 | 6.00 to 7.00 | COc1cccc(CNC(=O)[C@H]2O[C@@H](n3cc(-c4ccn(C)n4)c4c(N)ncnc43)[C@H](O)[C@@H]2O)c1 [Compound I-40]
11 | ≤ 6.00 | ≤ 6.00 | ≤ 6.00 | 6.00 to 7.00 | CN1CCC(NC(=O)[C@H]2O[C@@H](n3cc(-c4ccn(C)n4)c4c(N)ncnc43)[C@@H](F)[C@@H]2O)CC1 [Compound I-60]
12 | ≤ 6.00 | ≤ 6.00 | 6.00 to 7.00 | ≤ 6.00 | CCN(CC)C(=O)[C@H]1O[C@@H](n2cc(-c3ccn(C)n3)c3c(N)ncnc32)[C@H](O)[C@@H]1O [Compound I-150]
13 | ≤ 6.00 | ≤ 6.00 | 6.00 to 7.00 | ≤ 6.00 | Cn1ccc(-c2cn([C@@H]3O[C@H](C(=O)Nc4cc(F)cc(F)c4)[C@@H](O)[C@H]3O)c3ncnc(N)c23)n1 [Compound I-158]
14 | ≤ 6.00 | ≤ 6.00 |  | 6.00 to 7.00 | Cn1ccc(-c2cn([C@@H]3O[C@H](C(=O)Nc4ccccc4)[C@@H](O)[C@H]3O)c3ncnc(N)c23)n1 [Compound I-173]

From US20240051985A1, “METTL3 MODULATORS” (ACCENT THERAPEUTICS, INC., priority 2020, published 2024)
